Measured values: US20170363616A1, “PATTERNED NEUROMUSCULAR JUNCTIONS AND METHODS OF USE” (Los Alamos National Security, LLC, priority 2014, published 2017)

Tests used:
[1] = system: C2C12 skeletal myoblasts; experiment: Differentiation of C2C12 myoblasts to myotubes on graphene films or SiO2; type: cell-based, mouse
Protocol: C2C12 skeletal myoblasts (ATCC Cat. No. CRL 1772) were cultured on graphene films or SiO2 in high glucose DMEM supplemented with 10% fetal bovine serum (FBS) and 1% antibiotics. […] Cells were cultured for 5 days and stained with primary antibody MF20 (myosin heavy chain, MHC) overnight at 4° C., followed by goat anti-mouse secondary antibody and the nuclear stain 4′, 6-diamidino-2-phenylindole (DAPI) for 2 hours at 37° C. Cells were imaged with a fluorescent microscope and images were quantified using ImageJ 1.47d.
Fusion index was calculated as the ratio of the number of nuclei in myocytes with two or more nuclei versus the total number of nuclei. Cell density was determined by counting the number of nuclei in a particular area. Statistical analysis was performed using one-way analysis of variance and values are reported as mean±standard error of the mean.

[2] = system: NSC-34 motor neuron cells; experiment: Differentiation of NSC-34 motor neuron cells (neurite outgrowth); type: cell-based, mouse; details: IGF-1 added to Neurobasal differentiation media
Protocol: NSC-34 cells (Cellutions, Cat. No. CLU 140) are a hybrid cell line produced by fusion of motor neuron enriched embryonic mouse spinal cord cells with mouse neuroblastoma, resulting in a motor neuron-like cell. NSC-34 cells were grown in high glucose DMEM with 10% FBS and 1% antibiotics. […] In some examples, NSC-34 cells were cultured in Neurobasal medium with 50-100 ng/ml IGF-1. Cells were imaged with a fluorescent microscope and images were quantified using ImageJ 1.47d with the NeuronJ plugin.

[3] = IGF-1 (50 ng/ml) added to differentiation medium, graphene films, vs differentiation medium alone

Substance: insulin-like growth factor-1 [IGF-1]
- cell density [1, 3]: significantly increased
- fusion index [1, 3]: significantly increased
- myotube formation [1, 3]: significantly increased
- myotube formation ([1]; increasing the amount of IGF-1 in the differentiation medium from 1-500 ng/ml): increased myotube formation
- neurite length per neuron [2]: significantly increased
- number of neurites per neuron [2]: did not affect
- sum of neurite length [2]: significantly increased
